Assay results as given in the NIST ThermoML archive (doi:10.1016/j.fluid.2016.06.054).

Experiment: molar heat capacity at constant pressure
Conditions: Liquid, Flow calorimetry

CC(=O)[O-].CCn1cc[n+](C)c1 [1-ethyl-3-methylimidazolium acetate]
Conditions | molar heat capacity at constant pressure [J/K/mol]
303.15 K, 100 kPa | 325.25
303.17 K, 4020 kPa | 324.22
303.21 K, 8050 kPa | 322.31
303.25 K, 12080 kPa | 321.03
303.27 K, 16030 kPa | 319.45
313.25 K, 100 kPa | 329.51
313.37 K, 4110 kPa | 327.89
313.42 K, 8060 kPa | 327.03
313.45 K, 12060 kPa | 326.25
313.49 K, 16090 kPa | 325.87
323.16 K, 100 kPa | 332.22
323.22 K, 4040 kPa | 330.61
323.28 K, 8020 kPa | 329.03
323.31 K, 12070 kPa | 327.19
323.34 K, 16130 kPa | 326.51
333.42 K, 100 kPa | 337.87
333.48 K, 4080 kPa | 336.14
333.52 K, 8030 kPa | 334.67
333.59 K, 12010 kPa | 333.16
333.61 K, 16090 kPa | 331.41
343.76 K, 100 kPa | 341.44
343.82 K, 4020 kPa | 340.21
343.85 K, 8030 kPa | 338.53
343.92 K, 12050 kPa | 337.42
343.98 K, 16050 kPa | 336.01
354.29 K, 100 kPa | 345.18
354.33 K, 4060 kPa | 343.89
354.38 K, 8020 kPa | 342.02
354.46 K, 12080 kPa | 340.87
354.52 K, 16090 kPa | 339.03
363.65 K, 100 kPa | 348.36
363.67 K, 4050 kPa | 346.97
363.72 K, 8060 kPa | 345.19
363.78 K, 12070 kPa | 344.06
363.82 K, 16030 kPa | 342.91
374.02 K, 100 kPa | 353.57
374.09 K, 4070 kPa | 352.06
374.11 K, 8010 kPa | 350.13
374.15 K, 12150 kPa | 348.47
374.18 K, 16110 kPa | 347.01
383.41 K, 100 kPa | 357.23
383.46 K, 4080 kPa | 355.56
383.51 K, 8040 kPa | 354.44
383.53 K, 12090 kPa | 353.71
383.55 K, 16050 kPa | 352.62
393.22 K, 100 kPa | 362.22
393.26 K, 4030 kPa | 361.14
393.31 K, 8070 kPa | 359.92
393.33 K, 12140 kPa | 358.14
393.35 K, 16090 kPa | 356.53

CC(=O)[O-].CCCCCCn1cc[n+](C)c1 [3-hexyl-1-methylimidazolium acetate]
Conditions | molar heat capacity at constant pressure [J/K/mol]
308.3 K, 100 kPa | 446.98
308.6 K, 3940 kPa | 445.51
308.7 K, 7930 kPa | 444.39
308.7 K, 11720 kPa | 442.98
308.8 K, 16020 kPa | 442.23
317.5 K, 100 kPa | 451.85
317.5 K, 4020 kPa | 450.18
317.6 K, 8080 kPa | 449.27
317.8 K, 12320 kPa | 448.43
317.9 K, 16210 kPa | 447.35
327.4 K, 100 kPa | 455.72
327.5 K, 4030 kPa | 454.06
327.7 K, 8190 kPa | 452.63
327.8 K, 12480 kPa | 451.08
327.8 K, 16220 kPa | 450.18
337.2 K, 100 kPa | 460.35
337.3 K, 4120 kPa | 458.97
337.7 K, 8030 kPa | 457.41
337.8 K, 12180 kPa | 456.32
338 K, 16110 kPa | 454.87
345.9 K, 100 kPa | 466.57
346.2 K, 4120 kPa | 465.32
346.3 K, 8170 kPa | 463.82
346.5 K, 12410 kPa | 462.14
346.8 K, 16130 kPa | 460.75
355.3 K, 100 kPa | 472.17
355.6 K, 4120 kPa | 470.85
355.7 K, 8010 kPa | 469.29
355.9 K, 12430 kPa | 468.34
356.1 K, 16130 kPa | 466.81
365 K, 7990 kPa | 476.86
365.1 K, 12180 kPa | 475.05
365.4 K, 16100 kPa | 473.57
365.7 K, 100 kPa | 479.8
365.8 K, 4110 kPa | 478.25
374 K, 100 kPa | 485.51
374.2 K, 4020 kPa | 483.86
374.4 K, 8100 kPa | 482.22
374.7 K, 12380 kPa | 480.71
375 K, 16130 kPa | 479.24
383.9 K, 100 kPa | 491.39
384.1 K, 4100 kPa | 490.53
384.3 K, 7960 kPa | 489.08
384.4 K, 12530 kPa | 487.97
384.5 K, 16010 kPa | 486.3
394.9 K, 100 kPa | 496.24
395.1 K, 4070 kPa | 494.51
395.1 K, 8360 kPa | 493.11
395.2 K, 12770 kPa | 491.91
395.4 K, 16400 kPa | 490.48
